US20130022641A1, “Anti-Tumor Agent and Immunostimulating Agent” (ORION BREWERIES, LTD., priority 2005, published 2013)

Experiments:
Format in all cases: in vivo, C57BL/6 mice
T cells = test: Annexin V detection of apoptosis in liver T cell fractions (control); conditions: 2 μg/mouse; 24 hours after dosing
Experimental: (§1) The basic method for the experiment is the same as that of the third embodiment. C57BL/6 8th-week mice were used. […] And 2 μg/mouse of αGalcer was likewise administered. After 24 hours following the dosing, lymphocytes had been separated from the livers of the mice over time. Triple labeling immunostaining was undertaken by fluorescently-labeled monoclonal antibody based on […] anti-CD3 antibody (Pharmingen) and PE-labeled anti-NK1.1 antibody (Pharmingen) for detection of NKT cells (CD3^+NK1.1^+), and FITC labeled Annexin V (Pharmingen) for detection of apoptosis cells. The method for immunostaining was subject to that of Non-Patent Document 1. Next, PerCP and PE were detected via flow cytometric analysis (FACSCalibur, Becton-Dickinson). Based on the fluorescence intensity thereof, NKT cells fractions (areas shown in c of FIG. 13) were obtained. […] According to the embodiment, cells which caused apoptosis within the fractions were detected via measurement of fluorescence intensity of FITC in such fractions. […]
(§2) Histograms of mouse NKT cell fractions and T cell fractions of unprocessed normal mouse cells are shown (A and D). […] The fluorescence intensity of fluorescent substance C is shown on the horizontal axis and the number of cells (in units) is shown on the vertical axis for each profile. […]

NKT cells of the liver = test: Flow cytometric analysis of liver NKT cells after intraperitoneal administration; conditions: 2 μg/mouse, abdominal cavity
Experimental: C57BL/6 8th-week mice were used. […] Additionally, individuals that received 2 μg/mouse were used as positive controls. After dosing, lymphocytes were separated from the livers of the mice over time. Double labeling immunostaining was undertaken with 2 types of h monoclonal antibodies. FITC-labeled anti-CD3 (Phatrningen) and PE-labeled anti-NK1.1 (Pharmingen). Thereafter, flow cytometric analysis (FACSCalibur, Becton-Dickinson) was undertaken for dynamic states of NKT cells. In addition, a method of lymphocyte separation from the livers and the immunostaining method were subject to the methods of Non-Patent Document 7.
Cytograms show fluorescence intensities for FITC-labeled anti-CD3 on the horizontal axis and PE-labeled anti-NK1.1 antibody on the vertical axis in a log scale fashion. The larger the fluorescence intensities for FITC, the greater the number of CD3 molecules on the surfaces of cells. And the larger the PE fluorescence intensities, the greater the number of NK1.1 molecules on the measured surfaces of cells. […] Additionally, numeric values within the fractions represent the percentages of cells included in such fractions relative to all measured cells.

INF-γ = test: Level of INF-γ in serum by ELISA; conditions: 2 μg/mouse αGalcer, normal mouse about 40 μg/ml, FIG. 14
Experimental: Mice prepared in the third embodiment were used. After about 1 ml of blood had been collected from each mouse over time, serum was separated. The level of INF-γ in such serum was measured in accordance with the ELISA test. In regards to the ELISA test, a BD Opt EIA set (Pharmingen) was used, and the method was subject to the attached protocol.

GPT = test: Transaminase values in the serums (GPT), liver damage; conditions: 2 μg/mouse, serum, normal mice about 11 IU/L
Experimental: The mice prepared in the third embodiment were used. After collecting about 1 ml of blood from each mouse over time, serums were separated. Transaminase values in the serums (GPT) were measured using of a Transaminase CII Test Wake (Wake Pure Chemical Industries, Ltd) as an extracorporeal diagnostic kit. The method for measurement was subject to the protocol attached with the kit. In addition, generally speaking, red cells of mice are easily hemolyzed. Thus. GOT values regarding which errors easily occur to results of measurements are not presented herein.
Herein, first, brief explanations are given in regards to GPT in the serums. GPT normally functions in liver cells. Due to destruction of […] caused by liver damage, such as hepatitis and the like, GPT leaks into the blood. Thus, increase of GPT values in the blood is an index of liver damage. Generally, it is understood that liver damage, such as hepatitis and the like, exists when the figures are greater than 100 IU (international unit)/L (liter).

NKT cells (CD3+NK1.1+) = test: Annexin V detection of apoptosis in liver NKT cell fractions; conditions: 2 μg/mouse; 24 hours after dosing; normal mice peak around 10
Experimental: as §1, §2

Structure (SMILES): CCCCCCCCCCCCCCCCCCCCCCCCCC(=O)N[C@@H](CO[C@H]1O[C@H](CO)[C@H](O)[C@H](O)[C@H]1O)[C@H](O)[C@H](O)CCCCCCCCCCCCCC [αGalCer, a-Galactosyl ceramide]
- apoptosis induction in T cells (T cells): Apoptosis induction could not be recognized
- NKT cells in the liver (NKT cells of the liver; 24 hours following administration): such tendency had not changed
- NKT cells in the liver (NKT cells of the liver; within 12 hours following dosing): most NKT cells in the liver disappeared
- level of INF-γ in the blood (INF-γ): about 3,000 μg/ml
- GPT values (GPT; after 12 hours): 116 IU/L
- GPT values (GPT; after 24 hours): 183 IU/L
- peak of Annexin V fluorescence intensity in NKT cell fraction (NKT cells (CD3+NK1.1+)): ~200
